Experimental data from patent US20070015223A1, “Method of detecting substance to be analyzed” (OLYMPUS CORPORATION, priority 2003, published 2007).

Experiments:
[1] = system: genes to be analyzed in rat liver; experiment: microarray expression level ratio, tyramide reaction time adjusted by GAPDH spot signal intensity (Example 7, Table 1)
[2] = system: genes to be analyzed in rat liver; experiment: microarray expression level ratio, control experiment with fixed tyramide reaction time of 5 minutes (Table 3)
[3] = system: genes to be analyzed in rat liver; experiment: microarray expression level ratio, sample amount quantified and matched (Example 5, Table 2)
[4] = Phenobal group rat liver, aRNA 400 ng, Deposition Time 2 min.
[5] = rat liver, aRNA 400 ng vs 100 ng, Deposition Time 2 min. vs 7 min.
[6] = Phenobal group rat liver, aRNA 400 ng, Deposition Time 5 min.
[7] = rat liver, aRNA 400 ng vs 100 ng, Deposition Time 5 min. both, corrected using the internal standard gene
[8] = Phenobal group rat liver, aRNA 200 ng, Deposition Time 5 min.
[9] = rat liver, aRNA 200 ng both, Deposition Time 5 min. both

CCC1(c2ccccc2)C(=O)NC(=O)NC1=O [Phenobal, phenobarbital]
Raw Data (spot signal intensity), Gene A [1, 4]: 680
Raw Data (spot signal intensity), Gene B [1, 4]: 750
Raw Data (spot signal intensity), Gene C [1, 4]: 250
Raw Data (spot signal intensity), Gene D [1, 4]: 2800
Raw Data (spot signal intensity), Gene E [1, 4]: 500
Raw Data (spot signal intensity), Gene F [1, 4]: 60
Raw Data (spot signal intensity), Gene GAPDH ([1]; internal standard gene, Phenobal group rat liver, aRNA 400 ng, Deposition Time 2 min.): 2500
Ratio (Phenobal/Control), Gene GAPDH ([1]; internal standard gene, rat liver, aRNA 400 ng vs 100 ng, Deposition Time 2 min. vs 7 min.): 1.0
Ratio (Phenobal/Control), Gene A [1, 5]: 1.8
Ratio (Phenobal/Control), Gene B [1, 5]: 2.8
Ratio (Phenobal/Control), Gene C [1, 5]: 0.5
Ratio (Phenobal/Control), Gene D [1, 5]: 1.9
Ratio (Phenobal/Control), Gene E [1, 5]: 0.2
Ratio (Phenobal/Control), Gene F [1, 5]: 1.2
Raw Data (spot signal intensity), Gene a [2, 6]: 1700
Raw Data (spot signal intensity), Gene b [2, 6]: 1875
Raw Data (spot signal intensity), Gene c [2, 6]: 625
Raw Data (spot signal intensity), Gene d [2, 6]: 4095
Raw Data (spot signal intensity), Gene e [2, 6]: 1250
Raw Data (spot signal intensity), Gene f [2, 6]: 150
Raw Data (spot signal intensity), Gene GAPDH ([2]; internal standard gene, Phenobal group rat liver, aRNA 400 ng, Deposition Time 5 min.): 4095
Ratio (Phenobal/Control), Gene GAPDH ([2]; internal standard gene, rat liver, aRNA 400 ng vs 100 ng, Deposition Time 5 min. both): 1.0
Ratio (Phenobal/Control), Gene a [2, 7]: 2.6
Ratio (Phenobal/Control), Gene b [2, 7]: 4.1
Ratio (Phenobal/Control), Gene c [2, 7]: 0.7
Ratio (Phenobal/Control), Gene d [2, 7]: 1.6
Ratio (Phenobal/Control), Gene e [2, 7]: 0.2
Ratio (Phenobal/Control), Gene f [2, 7]: 1.6
Raw Data (spot signal intensity), Gene a [3, 8]: 650
Raw Data (spot signal intensity), Gene b [3, 8]: 745
Raw Data (spot signal intensity), Gene c [3, 8]: 255
Raw Data (spot signal intensity), Gene d [3, 8]: 2900
Raw Data (spot signal intensity), Gene e [3, 8]: 550
Raw Data (spot signal intensity), Gene f [3, 8]: 65
Raw Data (spot signal intensity), Gene GAPDH ([3]; internal standard gene, Phenobal group rat liver, aRNA 200 ng, Deposition Time 5 min.): 2500
Ratio (Phenobal/Control), Gene GAPDH ([3]; internal standard gene, rat liver, aRNA 200 ng both, Deposition Time 5 min. both): 1.0
Ratio (Phenobal/Control), Gene a [3, 9]: 1.8
Ratio (Phenobal/Control), Gene b [3, 9]: 2.6
Ratio (Phenobal/Control), Gene c [3, 9]: 0.5
Ratio (Phenobal/Control), Gene d [3, 9]: 2.1
Ratio (Phenobal/Control), Gene e [3, 9]: 0.2
Ratio (Phenobal/Control), Gene f [3, 9]: 1.1
